Reference: patent US8192962B2, “Processes for detecting toxic substances” (Daikin Industries, Ltd., priority 2001, dated 2012)

System: Mitochondria-located protein genes
Test: DNA chip mRNA expression in yeast, mitochondria-located protein genes (Table 2)
Type: cell-based, Saccharomyces cerevisiae S288C
Details: cells incubated two hours with the chemical substance
In short: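 Cells were grown at 25° C. in YPD, treated at logarithmic phase for 2 h with a chemical at a concentration inhibiting growth but not causing death, and compared with untreated cultures. Labeled cDNA was hybridized to a DNA chip carrying all yeast genes, and the expression ratio was taken from scanner fluorescence.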

[Cl][Hg][Cl] [(3), HgCl2]
The level of expressed mRNA in the presence of chemical substance/The level of expressed mRNA in the absence of chemical substance (yeast gene YJR121W): 3.3 | The level of expressed mRNA in the presence of chemical substance/The level of expressed mRNA in the absence of chemical substance (yeast gene YKL003C): 0.8 | The level of expressed mRNA in the presence of chemical substance/The level of expressed mRNA in the absence of chemical substance (yeast gene YKL016C): 0.7 | The level of expressed mRNA in the presence of chemical substance/The level of expressed mRNA in the absence of chemical substance (yeast gene YKL141W): 4.7 | The level of expressed mRNA in the presence of chemical substance/The level of expressed mRNA in the absence of chemical substance (yeast gene YKL142W): 3.1 | The level of expressed mRNA in the presence of chemical substance/The level of expressed mRNA in the absence of chemical substance (yeast gene YKL148C): 3.7 | The level of expressed mRNA in the presence of chemical substance/The level of expressed mRNA in the absence of chemical substance (yeast gene YKL170W): 0.5 | The level of expressed mRNA in the presence of chemical substance/The level of expressed mRNA in the absence of chemical substance (yeast gene YKL194C): 0.8 | The level of expressed mRNA in the presence of chemical substance/The level of expressed mRNA in the absence of chemical substance (yeast gene YKR066C): 5.5 | The level of expressed mRNA in the presence of chemical substance/The level of expressed mRNA in the absence of chemical substance (yeast gene YLL041C): 4.6 | The level of expressed mRNA in the presence of chemical substance/The level of expressed mRNA in the absence of chemical substance (yeast gene YLR038C): 0.6 | The level of expressed mRNA in the presence of chemical substance/The level of expressed mRNA in the absence of chemical substance (yeast gene YLR259C): 3.1 | The level of expressed mRNA in the presence of chemical substance/The level of expressed mRNA in the absence of chemical substance (yeast gene YLR295C): 1.1 | The level of expressed mRNA in the presence of chemical substance/The level of expressed mRNA in the absence of chemical substance (yeast gene YLR304C): 5.0 | The level of expressed mRNA in the presence of chemical substance/The level of expressed mRNA in the absence of chemical substance (yeast gene YLR348C): 1.2 | The level of expressed mRNA in the presence of chemical substance/The level of expressed mRNA in the absence of chemical substance (yeast gene YLR395C): 2.2 | The level of expressed mRNA in the presence of chemical substance/The level of expressed mRNA in the absence of chemical substance (yeast gene YML054C): 1.3 | The level of expressed mRNA in the presence of chemical substance/The level of expressed mRNA in the absence of chemical substance (yeast gene YML120C): 1.9 | The level of expressed mRNA in the presence of chemical substance/The level of expressed mRNA in the absence of chemical substance (yeast gene YML129C): 0.9 | The level of expressed mRNA in the presence of chemical substance/The level of expressed mRNA in the absence of chemical substance (yeast gene YMR023C): 0.5 | The level of expressed mRNA in the presence of chemical substance/The level of expressed mRNA in the absence of chemical substance (yeast gene YMR035W): 1.5 | The level of expressed mRNA in the presence of chemical substance/The level of expressed mRNA in the absence of chemical substance (yeast gene YMR083W): 2.6 | The level of expressed mRNA in the presence of chemical substance/The level of expressed mRNA in the absence of chemical substance (yeast gene YMR089C): 0.9 | The level of expressed mRNA in the presence of chemical substance/The level of expressed mRNA in the absence of chemical substance (yeast gene YMR152W): 1.8 | The level of expressed mRNA in the presence of chemical substance/The level of expressed mRNA in the absence of chemical substance (yeast gene YMR203W): 3.0 | The level of expressed mRNA in the presence of chemical substance/The level of expressed mRNA in the absence of chemical substance (yeast gene YMR267W): 0.7 | The level of expressed mRNA in the presence of chemical substance/The level of expressed mRNA in the absence of chemical substance (yeast gene YNL055C): 5.5 | The level of expressed mRNA in the presence of chemical substance/The level of expressed mRNA in the absence of chemical substance (yeast gene YNL071W): 1.7 | The level of expressed mRNA in the presence of chemical substance/The level of expressed mRNA in the absence of chemical substance (yeast gene YNL073W): 0.9 | The level of expressed mRNA in the presence of chemical substance/The level of expressed mRNA in the absence of chemical substance (yeast gene YNL104C): 3.0 | The level of expressed mRNA in the presence of chemical substance/The level of expressed mRNA in the absence of chemical substance (yeast gene YNL256W): 0.6 | The level of expressed mRNA in the presence of chemical substance/The level of expressed mRNA in the absence of chemical substance (yeast gene YOL096C): 1.2 | The level of expressed mRNA in the presence of chemical substance/The level of expressed mRNA in the absence of chemical substance (yeast gene YOR020C): 1.7 | The level of expressed mRNA in the presence of chemical substance/The level of expressed mRNA in the absence of chemical substance (yeast gene YOR037W): 0.6 | The level of expressed mRNA in the presence of chemical substance/The level of expressed mRNA in the absence of chemical substance (yeast gene YOR100C): 1.6 | The level of expressed mRNA in the presence of chemical substance/The level of expressed mRNA in the absence of chemical substance (yeast gene YOR130C): 1.4 | The level of expressed mRNA in the presence of chemical substance/The level of expressed mRNA in the absence of chemical substance (yeast gene YOR142W): 3.4 | The level of expressed mRNA in the presence of chemical substance/The level of expressed mRNA in the absence of chemical substance (yeast gene YOR150W): 1.0 | The level of expressed mRNA in the presence of chemical substance/The level of expressed mRNA in the absence of chemical substance (yeast gene YOR176W): 2.7 | The level of expressed mRNA in the presence of chemical substance/The level of expressed mRNA in the absence of chemical substance (yeast gene YOR187W): 1.9 | The level of expressed mRNA in the presence of chemical substance/The level of expressed mRNA in the absence of chemical substance (yeast gene YOR316C): 1.5 | The level of expressed mRNA in the presence of chemical substance/The level of expressed mRNA in the absence of chemical substance (yeast gene YPL040C): 0.8 | The level of expressed mRNA in the presence of chemical substance/The level of expressed mRNA in the absence of chemical substance (yeast gene YPL134C): 1.6 | The level of expressed mRNA in the presence of chemical substance/The level of expressed mRNA in the absence of chemical substance (yeast gene YPL135W): 2.5 | The level of expressed mRNA in the presence of chemical substance/The level of expressed mRNA in the absence of chemical substance (yeast gene YPL215W): 1.0 | The level of expressed mRNA in the presence of chemical substance/The level of expressed mRNA in the absence of chemical substance (yeast gene YPL262W): 3.8 | The level of expressed mRNA in the presence of chemical substance/The level of expressed mRNA in the absence of chemical substance (yeast gene YPR024W): 1.3 | The level of expressed mRNA in the presence of chemical substance/The level of expressed mRNA in the absence of chemical substance (yeast gene YPR037C): 1.6 | The level of expressed mRNA in the presence of chemical substance/The level of expressed mRNA in the absence of chemical substance (yeast gene YPR047W): 0.9 | The level of expressed mRNA in the presence of chemical substance/The level of expressed mRNA in the absence of chemical substance (yeast gene YPR134W): 0.8
